pIC50: −log10 of the molar value. Several values for one entry are separate records, joined by “and”; a condition that tells them apart may be missing. Equal entries are not always repeated.
Tested on: 362531-283-R-J2-PDC complex spheroid viability
Assay: Anticancer human tumor 362531-283-R-J2-PDC patient-derived colon adenocarcinoma cell line growth inhibition [RAS]
Settings: for viability, T/C: stronger effect = lower value
From the text: RAS pathway inhibitors in Combinations in Complex Spheroids
A high-throughput screen of multi-cell type tumor spheroids was designed to identify active combinations of RAS pathway inhibitors and targeted small molecules. Complex spheroids include a stromal component modeled by human endothelial cells (HUVEC) and fibroblasts modeled by human mesenchymal stem cells (MSCs). The concentration ranges selected for each drug and investigational agent were based upon clinically achievable concentrations if the clinical Cmax of the agent was known.
Compounds. The drugs and investigational agents: abemaciclib (NSC768073), cobimetinib (NSC768068), divarasib (GDC6063, NSC841802), docetaxel (NSC628503), GDC-1971 (RLY-1971, NSC841576), gemcitabine (NSC613327), inavolisib (NSC800729), ipatasertib (NSC767898), KB-0742 (NSC834161), MRTX-1133 (NSC836407), osimertinib (NSC779217), RMC-4630 (NSC839698), RMC-6236 (NSC851965), RMC-6291 (NSC852671), Ro-3306 (NSC812927), sapanisertib (NSC764658), SN-38 (NSC673596), staurosporine (NSC755774), SY5609 (NSC837396), and tovorafenib (DAY101, NSC766906), were obtained from the National Cancer Institute (NCI) Developmental Therapeutics Program Chemical Repository. The FDA-approved anticancer drug set is available from the NCI Developmental Therapeutics Program. […] The stock solutions were prepared in dimethyl sulfoxide (DMSO, Sigma-Aldrich, St. Louis, MO, cat. D2650) at 800-fold the tested concentration and stored at -70 degrees C prior to their use. All drugs and investigational agents were tested over a range starting from a high concentration at or near the clinical Cmax and decreasing in half-log increments. If the clinical Cmax for an agent had not been determined, the highest concentration tested was 10 microM.
Cell Culture. All cells were maintained in an incubator at 37 degrees C and 5% CO2 with 95% humidity. The PDC lines were cultured according to standard operating procedures established by the NCI PDMR. All PDCs were thawed and cultured in Matrigel-coated flasks prepared with a working solution of 1X Ham's F-12 nutrient mix, without supplementation (Invitrogen, Waltham, MA, cat. 11765054), 100 U/mL penicillin-streptomycin (Invitrogen, cat. 15140122), and 2.5% Matrigel (Corning Inc., Corning, NY, cat. 354248) for the first three passages. The 362531-283-R-J2-PDC and 782815-120-R-J1-PDC lines were cultured in 6C/Colon 1B media, which includes advanced DMEM/F-12 (Thermo Fisher Scientific, cat. 12634028), 10 mM HEPES (Thermo Fisher Scientific, cat. 15630080), 1X GlutaMAX supplement (Thermo Fisher Scientific, cat. 35050061), 0.1 mg/mL primocin (InvivoGen, San Diego, CA, cat. ant-pm-2), 10% defined fetal bovine serum, heat inactivated (HyClone Laboratories Inc., Logan, UT, cat. SH30070.03HI), 50% L-WRN conditioned media (ATCC, cat. CRL-3276), 1.25 mM N-Acetyl-L-cysteine (Sigma-Aldrich, cat. A9165), 10 mM nicotinamide (Sigma-Aldrich, cat. N0636), 1X B-27 supplement (Thermo Fisher Scientific, cat. 17504044), 1X N-2 supplement (Thermo Fisher Scientific, cat. 17502048), 50 ng/mL human EGF (Thermo Fisher Scientific, cat. PHG0311), and 10 microM Y-27632 dihydrochloride (Tocris Bioscience, cat. 1254). The K12877-001-R-J1-PDC line was cultured in 6I media, which includes all 6C/Colon 1B media plus 10 ng/mL human FGF-10 (PeproTech, cat. 100-26), 1 ng/mL human FGF-2 (PeproTech, cat. 100-18B), 1 µM prostaglandin E2 (Tocris Bioscience, cat. 2296), […] hydrocortisone (Sigma-Aldrich, cat. H4001), and […] bovine insulin (Sigma-Aldrich, cat. I6634). The K86415-001-R-J1-PDC line was cultured in 6D media, which includes all 6C/Colon 1B media components minus the L-WRN conditioned media. The 485176-168-R4-J1-PDC was cultured in PANC media, which includes all 6C/Colon 1B media plus 100 ng/mL human FGF-10 (PeproTech, cat. 100-26), 500 nM SB-431542 (Selleckchem, cat. S1067), and 10 nM gastrin (Tocris Bioscience, cat. 3006). […]
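Also: spheroids exposed to the agents for 7 days before readout.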
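For viability, T/C in this document: luminescence viability as percent of DMSO vehicle control wells.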

CCC(CC)c1cc(NC2CCC(N)C2)n2nccc2n1 (stereo unspecified) + CCn1c(-c2cccnc2C(C)OC)c2c3cc(ccc31)N1CCOC(CC(NC(=O)C(C(C)C)N(C)C(=O)C3(F)CCN(C(=O)C#CC(C)(C)N(C)C)CC3)C(=O)N3CCCC(N3)C(=O)OCC(C)(C)C2)C1 showed a pIC50 (curve of first compound, second compound 0.000949 µM) of 5.34, a pIC50 (curve of first compound, second compound 0.003 µM) of 5.35 and a pIC50 (curve of first compound, second compound 0.00949 µM) of 5.36. For the same molecule, the pIC50 (curve of first compound, second compound 0.03 µM) was 5.33, the pIC50 (curve of first compound, second compound 0.0949 µM) was 5.33 and the pIC50 (curve of first compound, second compound 0.3 µM) was 5.31. For the same molecule, the viability, T/C (second compound 0.000949 µM, first compound 0.0316 µM) was 99.5%, the viability, T/C (second compound 0.000949 µM, first compound 0.1 µM) was 111% and the viability, T/C (second compound 0.000949 µM, first compound 0.316 µM) was 98.1%. The viability, T/C (second compound 0.000949 µM, first compound 1 µM) was 98.4%, the viability, T/C (second compound 0.000949 µM, first compound 3.16 µM) was 70.5% and the viability, T/C (second compound 0.000949 µM, first compound 10 µM) was 3.98%. For the same molecule, the viability, T/C (second compound 0.003 µM, first compound 0.0316 µM) was 105%, the viability, T/C (second compound 0.003 µM, first compound 0.1 µM) was 101% and the viability, T/C (second compound 0.003 µM, first compound 0.316 µM) was 99.9%. It also gave a viability, T/C (second compound 0.003 µM, first compound 1 µM) of 101%, a viability, T/C (second compound 0.003 µM, first compound 3.16 µM) of 70.8% and a viability, T/C (second compound 0.003 µM, first compound 10 µM) of 3.44%. It also gave a viability, T/C (second compound 0.00949 µM, first compound 0.0316 µM) of 103%, a viability, T/C (second compound 0.00949 µM, first compound 0.1 µM) of 116% and a viability, T/C (second compound 0.00949 µM, first compound 0.316 µM) of 97.9%. It also gave a viability, T/C (second compound 0.00949 µM, first compound 1 µM) of 96.5%, a viability, T/C (second compound 0.00949 µM, first compound 3.16 µM) of 67.2% and a viability, T/C (second compound 0.00949 µM, first compound 10 µM) of 3.91%. For the same molecule, the viability, T/C (second compound 0.03 µM, first compound 0.0316 µM) was 102%, the viability, T/C (second compound 0.03 µM, first compound 0.1 µM) was 104% and the viability, T/C (second compound 0.03 µM, first compound 0.316 µM) was 95.8%. It also gave a viability, T/C (second compound 0.03 µM, first compound 1 µM) of 89%, a viability, T/C (second compound 0.03 µM, first compound 3.16 µM) of 76.8% and a viability, T/C (second compound 0.03 µM, first compound 10 µM) of 4.25%. For the same molecule, the viability, T/C (second compound 0.0949 µM, first compound 0.0316 µM) was 94.3%, the viability, T/C (second compound 0.0949 µM, first compound 0.1 µM) was 102% and the viability, T/C (second compound 0.0949 µM, first compound 0.316 µM) was 93.7%. It also gave a viability, T/C (second compound 0.0949 µM, first compound 1 µM) of 94.8%, a viability, T/C (second compound 0.0949 µM, first compound 3.16 µM) of 73.7% and a viability, T/C (second compound 0.0949 µM, first compound 10 µM) of 4.42%. The viability, T/C (second compound 0.3 µM, first compound 0.0316 µM) was 99.2%, the viability, T/C (second compound 0.3 µM, first compound 0.1 µM) was 105% and the viability, T/C (second compound 0.3 µM, first compound 0.316 µM) was 100%. For the same molecule, the viability, T/C (second compound 0.3 µM, first compound 1 µM) was 91.8%, the viability, T/C (second compound 0.3 µM, first compound 3.16 µM) was 80.8% and the viability, T/C (second compound 0.3 µM, first compound 10 µM) was 4.23%.
In the case of CCC(CC)c1cc(NC2CCC(N)C2)n2nccc2n1 (stereo unspecified), the viability, T/C (compound 0.0316 µM) was 106% [middle of 4 runs], the viability, T/C (compound 0.1 µM) was 94% and 100% and 104% (2×) and the viability, T/C (compound 0.316 µM) was 101% [middle of 4 runs]. The viability, T/C (compound 1 µM) was 94.1% [middle of 4 runs], the viability, T/C (compound 3.16 µM) was 74.8% [middle of 4 runs] and the viability, T/C (compound 10 µM) was 3.99% [middle of 4 runs]. For the same molecule, the IC50 (curve of compound) was 4.62 µM [middle of 4 runs].
CC1(C)CCC(Nc2ncc(C(F)(F)F)c(-c3c[nH]c4c(P(C)(C)=O)c(C#N)ccc34)n2)CN1 (stereo unspecified) was tested, and the viability, T/C (compound 0.000949 µM) was 104% [middle of 4 runs], the viability, T/C (compound 0.003 µM) was 98.7% [middle of 4 runs] and the viability, T/C (compound 0.00949 µM) was 107% [middle of 4 runs]. For the same molecule, the viability, T/C (compound 0.03 µM) was 101% [middle of 4 runs], the viability, T/C (compound 0.0949 µM) was 104% [middle of 4 runs] and the viability, T/C (compound 0.3 µM) was 108% [middle of 4 runs]. It also gave a pIC50 (curve of compound) of under 6.52.
